Columns and labels:
[1] = molecular target: Serine/threonine-protein kinase PLK1 (Homo sapiens, UniProt P53350); experiment: Inhibition of human PLK1 incubated for 40 mins in presence of [gamma-33P]ATP by scintillation counting method
Wee1-like protein kinase = Wee1-like protein kinase (Homo sapiens, UniProt P30291); experiment: Inhibition of human WEE1 using LSNLYHQGKFLQTFCGSPLYRRR peptide as substrate incubated for 40 mins in presence of [gamma-33P]ATP by scintillation counting method
[2] = Oral bioavailability in CD-1 mouse at 10 mg/kg; format: ADME, organism-based; conditions: in vivo

Serine/threonine-protein kinase PLK1, sequence (P53350 whole entry): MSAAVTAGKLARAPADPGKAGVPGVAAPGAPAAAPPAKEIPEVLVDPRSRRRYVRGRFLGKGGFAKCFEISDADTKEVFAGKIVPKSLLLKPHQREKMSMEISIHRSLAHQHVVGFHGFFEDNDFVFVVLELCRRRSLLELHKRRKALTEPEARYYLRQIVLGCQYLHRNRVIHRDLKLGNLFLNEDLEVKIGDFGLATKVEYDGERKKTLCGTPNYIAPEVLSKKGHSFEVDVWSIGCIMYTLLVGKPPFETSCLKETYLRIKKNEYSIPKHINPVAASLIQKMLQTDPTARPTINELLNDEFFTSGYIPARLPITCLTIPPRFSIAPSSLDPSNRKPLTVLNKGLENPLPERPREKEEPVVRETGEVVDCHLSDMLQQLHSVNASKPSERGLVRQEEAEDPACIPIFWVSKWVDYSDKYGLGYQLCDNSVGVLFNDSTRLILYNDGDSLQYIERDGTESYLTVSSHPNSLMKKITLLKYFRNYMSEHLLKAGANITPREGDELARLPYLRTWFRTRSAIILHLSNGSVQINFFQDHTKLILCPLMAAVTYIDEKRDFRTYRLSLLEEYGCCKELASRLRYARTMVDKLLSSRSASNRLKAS
Wee1-like protein kinase, sequence (P30291 whole entry): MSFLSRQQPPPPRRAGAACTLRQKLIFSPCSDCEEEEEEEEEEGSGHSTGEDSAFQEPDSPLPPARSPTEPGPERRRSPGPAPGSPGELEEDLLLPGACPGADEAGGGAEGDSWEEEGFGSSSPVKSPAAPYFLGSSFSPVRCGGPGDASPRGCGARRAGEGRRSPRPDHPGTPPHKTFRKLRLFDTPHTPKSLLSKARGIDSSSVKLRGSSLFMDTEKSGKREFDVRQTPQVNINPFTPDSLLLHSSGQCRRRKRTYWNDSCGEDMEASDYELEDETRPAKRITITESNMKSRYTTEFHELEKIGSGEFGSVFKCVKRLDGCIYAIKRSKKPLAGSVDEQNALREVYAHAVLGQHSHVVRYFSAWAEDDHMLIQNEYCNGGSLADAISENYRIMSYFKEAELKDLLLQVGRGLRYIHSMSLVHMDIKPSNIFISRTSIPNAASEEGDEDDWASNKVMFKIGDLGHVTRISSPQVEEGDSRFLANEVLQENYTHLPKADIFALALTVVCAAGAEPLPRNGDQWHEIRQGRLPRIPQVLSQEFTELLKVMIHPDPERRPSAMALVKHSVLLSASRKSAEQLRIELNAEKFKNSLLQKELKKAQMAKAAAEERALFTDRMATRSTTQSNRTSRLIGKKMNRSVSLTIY

CC(C)(O)c1cccc(-n2cc(F)c3cnc(Nc4ccc(NC(=O)C5CCOCC5)cc4)nc32)n1
IC50 [1]: 30 nM | IC50 (Wee1-like protein kinase): 52 nM

CN1CCN(c2ccc(Nc3ncc4c(F)cn(-c5cccc(C6(F)COC6)n5)c4n3)cc2)CC1
IC50 [1]: 24 nM | IC50 (Wee1-like protein kinase): 19 nM

CCN1CCC(Oc2ccc(Nc3ncc4c(F)cn(-c5cccc(C(C)(C)O)n5)c4n3)cc2)CC1
IC50 [1]: 39 nM | IC50 (Wee1-like protein kinase): 19 nM

CC(C)(O)c1cccc(-n2cc(F)c3cnc(Nc4ccc(N5C[C@@H]6C[C@H]5CN6)cc4)nc32)n1
IC50 [1]: 30 nM | IC50 (Wee1-like protein kinase): 24 nM

CC(C)(O)c1cccc(-n2cc(F)c3cnc(Nc4ccc(C(=O)NC5CCOCC5)cc4)nc32)n1
IC50 [1]: 9 nM | IC50 (Wee1-like protein kinase): 45 nM

CN1CCC(NC(=O)c2ccc(Nc3ncc4ccn(-c5cccc(C(C)(C)O)n5)c4n3)cc2)CC1
IC50 [1]: 59 nM | IC50 (Wee1-like protein kinase): 33 nM

CN1CCC(NC(=O)c2ccc(Nc3ncc4c(F)cn(-c5cccc(C(C)(C)O)n5)c4n3)cc2)CC1
IC50 [1]: 29 nM | IC50 (Wee1-like protein kinase): 39 nM

CCN1CCC(NC(=O)c2ccc(Nc3ncc4c(F)cn(-c5cccc(C(C)(C)O)n5)c4n3)cc2)CC1
IC50 [1]: 34 nM | IC50 (Wee1-like protein kinase): 33 nM

CC(C)(O)c1cccc(-n2cc(F)c3cnc(Nc4ccc(N5C[C@H]6C[C@@H]5CN6)cc4)nc32)n1
IC50 [1]: 19 nM | IC50 (Wee1-like protein kinase): 21 nM

CN1CCN(c2ccc(Nc3ncc4c(F)cn(-c5cccc(N=S(C)(C)=O)n5)c4n3)cc2)CC1
IC50 [1]: 384 nM | IC50 (Wee1-like protein kinase): 26 nM | bioavailability [2]: > 90%

CC(C)(O)c1cccc(-n2cc(F)c3cnc(Nc4ccc(N5CCNCC5)cc4)nc32)n1
IC50 [1]: 60 nM | IC50 (Wee1-like protein kinase): 52 nM

CC(C)(O)c1cccc(-n2cc(F)c3cnc(Nc4ccc(N5CCNC6(CC6)C5)cc4)nc32)n1
IC50 [1]: 61 nM | IC50 (Wee1-like protein kinase): 63 nM
